The record followed here is ChEMBL document CHEMBL1201862, “PubChem BioAssay data set” (2004).

One assay deals with HEK293. The assay is described as follows: inhibitors of LMP1-driven NF-kB reporter, dose response, cell-based, HEK293, luciferase, cherry-pick (AID 588343). It counts as functional. As to conditions: Homo sapiens.
Assay [1] is described as follows: Shn3 3'UTR reporter inhibitors, dose response, cell-based, Clone20 osteoblasts, firefly luciferase, cherry-picked (AID 624132).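 Note: firefly luciferase luminescence from reporter carrying the Shn3 3'UTR in osteoblasts.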 It counts as functional.
Assay [2] is described as follows: HepG2 cell cytotoxicity, dose response, cytotoxicity control for Shn3 inhibitor project, CellTiter-Glo, cherry-picked (AID 624134). In kind it is functional, cell-based.
Assay [3] is described as follows: control 3'UTR Renilla luciferase suppression, dose response, counter-screen for Shn3 inhibitor project, cell-based, Clone20-Shn3RL, cherry-picked (AID 624133). It counts as functional. In general terms: Counterscreens check selectivity or assay interference.
In a further assay the target is T1, Caspase-3 (Homo sapiens, UniProt P42574).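 Note: Dose-response selectivity test against caspase-3 for candidate inhibitors of sentrin-specific proteases (SENPs).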
T1 sequence (P42574 whole entry): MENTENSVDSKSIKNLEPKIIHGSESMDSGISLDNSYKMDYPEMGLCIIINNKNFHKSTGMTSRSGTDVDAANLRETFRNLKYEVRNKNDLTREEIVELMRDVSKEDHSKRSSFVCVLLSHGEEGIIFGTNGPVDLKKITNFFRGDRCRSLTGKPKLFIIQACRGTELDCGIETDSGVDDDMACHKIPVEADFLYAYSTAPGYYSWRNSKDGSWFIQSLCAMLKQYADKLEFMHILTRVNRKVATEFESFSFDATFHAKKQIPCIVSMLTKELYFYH
It counts as functional.

Assay [4] concerns the target T2, Sentrin-specific protease 7 (Homo sapiens, UniProt Q9BQF6).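 Note: Luminescence-based dose-response confirmation of ultra-high-throughput screening hits, measuring inhibition of SENP7.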
T2 sequence (Q9BQF6 whole entry): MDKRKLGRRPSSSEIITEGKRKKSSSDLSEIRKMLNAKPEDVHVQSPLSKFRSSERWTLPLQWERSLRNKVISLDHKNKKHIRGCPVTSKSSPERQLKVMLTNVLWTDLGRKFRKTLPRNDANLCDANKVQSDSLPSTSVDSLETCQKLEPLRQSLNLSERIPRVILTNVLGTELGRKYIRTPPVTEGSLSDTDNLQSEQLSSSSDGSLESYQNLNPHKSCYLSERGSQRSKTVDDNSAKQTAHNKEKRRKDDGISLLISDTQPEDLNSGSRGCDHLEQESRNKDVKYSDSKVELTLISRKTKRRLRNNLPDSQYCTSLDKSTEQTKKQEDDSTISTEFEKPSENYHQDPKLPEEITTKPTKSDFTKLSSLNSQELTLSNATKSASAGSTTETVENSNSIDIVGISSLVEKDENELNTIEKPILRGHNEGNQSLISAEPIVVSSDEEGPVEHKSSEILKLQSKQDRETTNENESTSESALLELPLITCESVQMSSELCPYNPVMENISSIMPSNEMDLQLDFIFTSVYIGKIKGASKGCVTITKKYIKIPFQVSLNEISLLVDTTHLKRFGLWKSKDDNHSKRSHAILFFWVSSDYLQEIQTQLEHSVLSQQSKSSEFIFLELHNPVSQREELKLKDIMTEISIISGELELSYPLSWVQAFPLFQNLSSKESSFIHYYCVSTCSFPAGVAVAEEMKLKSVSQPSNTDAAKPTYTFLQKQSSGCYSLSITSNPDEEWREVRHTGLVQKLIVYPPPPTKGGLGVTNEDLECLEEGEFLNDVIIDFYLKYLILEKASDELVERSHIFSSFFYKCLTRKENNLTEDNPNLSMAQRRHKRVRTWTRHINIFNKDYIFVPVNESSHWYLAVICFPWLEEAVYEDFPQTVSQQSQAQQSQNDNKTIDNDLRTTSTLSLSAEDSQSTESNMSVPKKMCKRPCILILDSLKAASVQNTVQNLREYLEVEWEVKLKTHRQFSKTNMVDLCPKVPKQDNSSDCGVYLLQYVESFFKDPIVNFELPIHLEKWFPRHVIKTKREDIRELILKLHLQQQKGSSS
It counts as functional.

Assay [5] has as its target T3, Sentrin-specific protease 6 (Homo sapiens, UniProt Q9GZR1).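 Note: Luminescence-based dose-response confirmatory assay of SENP6 inhibition, following up an ultra-high-throughput screen.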
T3 sequence (Q9GZR1 whole entry): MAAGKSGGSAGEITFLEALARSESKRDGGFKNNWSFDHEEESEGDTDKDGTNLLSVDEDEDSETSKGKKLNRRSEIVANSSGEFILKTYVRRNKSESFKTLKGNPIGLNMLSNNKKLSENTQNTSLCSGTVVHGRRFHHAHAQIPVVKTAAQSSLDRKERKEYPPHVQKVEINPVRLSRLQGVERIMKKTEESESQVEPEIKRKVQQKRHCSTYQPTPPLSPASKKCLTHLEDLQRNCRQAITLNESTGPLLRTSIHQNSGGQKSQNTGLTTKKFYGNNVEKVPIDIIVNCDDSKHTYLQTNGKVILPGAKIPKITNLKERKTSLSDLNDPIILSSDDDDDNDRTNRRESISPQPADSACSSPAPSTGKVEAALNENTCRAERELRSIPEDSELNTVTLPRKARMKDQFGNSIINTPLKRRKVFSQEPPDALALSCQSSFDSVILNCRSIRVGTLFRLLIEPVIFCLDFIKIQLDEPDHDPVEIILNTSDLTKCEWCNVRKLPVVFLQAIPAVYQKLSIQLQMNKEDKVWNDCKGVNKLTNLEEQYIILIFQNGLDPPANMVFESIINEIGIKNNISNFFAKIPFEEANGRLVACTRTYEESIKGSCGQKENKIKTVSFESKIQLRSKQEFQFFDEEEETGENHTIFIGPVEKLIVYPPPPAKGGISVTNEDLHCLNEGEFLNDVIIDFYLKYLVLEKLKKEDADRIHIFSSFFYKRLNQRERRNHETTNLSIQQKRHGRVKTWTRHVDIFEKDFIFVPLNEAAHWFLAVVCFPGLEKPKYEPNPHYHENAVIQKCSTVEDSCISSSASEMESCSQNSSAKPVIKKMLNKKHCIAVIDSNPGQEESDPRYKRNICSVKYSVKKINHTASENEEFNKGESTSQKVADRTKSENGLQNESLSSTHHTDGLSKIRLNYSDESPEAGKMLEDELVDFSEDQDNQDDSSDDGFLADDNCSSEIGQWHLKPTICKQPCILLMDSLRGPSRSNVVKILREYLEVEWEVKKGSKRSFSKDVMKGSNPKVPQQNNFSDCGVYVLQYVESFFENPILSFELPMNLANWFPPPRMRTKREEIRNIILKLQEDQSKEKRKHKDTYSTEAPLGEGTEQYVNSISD
In kind it is functional.

Assay [6] has as its target T4, Sentrin-specific protease 8 (Homo sapiens, UniProt Q96LD8).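 Note: luminescence read-out of SENP8 inhibition, dose-response confirmation following an ultra-high-throughput screen.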
T4 sequence (Q96LD8 whole entry): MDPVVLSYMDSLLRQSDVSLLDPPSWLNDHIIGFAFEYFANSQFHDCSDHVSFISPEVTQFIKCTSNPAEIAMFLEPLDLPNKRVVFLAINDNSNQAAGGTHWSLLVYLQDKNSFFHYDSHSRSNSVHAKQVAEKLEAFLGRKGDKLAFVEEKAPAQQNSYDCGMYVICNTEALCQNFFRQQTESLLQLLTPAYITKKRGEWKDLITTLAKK
It counts as functional.

Structures are written as SMILES. Calls of active or inactive are those of the source.

Usually AC50 stands for the concentration giving half of the maximal activity seen. The term IC50 denotes the concentration needed to halve the response being measured.

For `N=C(NOC(=O)c1cccc(Br)c1)c1ccccn1`, the AC50 in the assay with HEK293 is 21.8 µM (active).
As for `CCCCC(=O)NC(c1ccc(OC)c(OC)c1)c1ccc2cccnc2c1O` (stereo not drawn), the AC50 with HEK293 is 7.93 µM (active); in assay [1] it was 1.36 µM (active); in assay [2], 60.1 µM (active); in assay [3], 1.4 µM (active).
Take `O=C(O)c1ccc(-c2ccc(OS(=O)(=O)c3ccccc3F)cc2)cc1`: the IC50 on Caspase-3 is > 100 µM (inactive); in assay [4], 6.6 µM (active); in assay [5], 35 µM (active); in assay [6], 56.4 µM (active).
For `Cc1c(C(=O)O)cccc1-c1ccc(/C=C2/NC(=O)N(c3ccccc3)C2=O)o1` the same measures were > 100 µM (inactive), 21.2 µM (active), 28.6 µM (active) and 45 µM (active).
